Measurements: patent US9163040B2, “Substituted bisphenyl butanoic phosphonic acid derivatives as NEP inhibitors” (NOVARTIS AG, priority 2013, dated 2015)

Legend:
[1] = tested on: Aβ(1-40) peptide concentrations in cerebrospinal fluid; experiment: Aβ model: CSF Aβ after oral dosing, related to plasma ANP increase by exposure-response regression; format: in vivo, rat; details: rats, p.o.; for CSF Aβ (% vehicle control): 5 hr post-dosing; for fold higher % increases in CSF Aβ compared with Example 1: plasma ANP 200 to 240% of baseline
Protocol: The relative CNS and peripheral therapeutic activities of NEP inhibitors were evaluated in two nonclinical animal models. Compounds or their vehicle were administered orally to conscious rats, and either the increase in Aβ(1-40) peptide concentrations in cerebrospinal fluid (CSF; “Aβ model”) or the increase in plasma levels of the NEP substrate, atrial natriuretic peptide (ANP; “ANP potentiation model”) were determined. Thus, NEP inhibitors that elicit no or small increases in CSF Aβ at a given increase in plasma ANP may have an advantage over ones that trigger large elevations in Aβ.
CNS effects of NEP inhibitors were assessed in a different rat model (“Aβ model”). In this study, we have measured cerebrospinal fluid (CSF) levels of Aβ as a sensitive indicator of CNS Aβ concentrations (Kwasi G. Mawuenyega, 2010, Science, Vol 330, 1774)).
Experiments were conducted in naïve adult, male, WH rats purchased from Charles River Labs (body weights: 495±53 g, mean±SD; age: 8.5-12 months) that were housed and fed as described above. Rats were treated by oral gavage with 1 mL/kg of vehicle (0.5% methylcellulose+0.1% Tween 80) or a selected dose of NEP inhibitor between 7:30 and 10:00 am. Five hours later, rats were anesthetized with isoflurane, a laparotomy was performed, and an abdominal aortic blood sample was obtained on EDTA. Blood samples were centrifuged at 4° C. and 20 K g to separate plasma. Plasma samples were aliquoted and frozen (−70° C.) for later analysis of plasma compound levels. After exsanguination of the rat, the skin and muscle overlying the cisterna magna were retracted. A sample of CSF was collected by direct needle puncture through the exposed dura into the cisterna magna. CSF was transferred to pre-chilled (on ice) low-binding tubes (Protein LoBind tubes, 1.5 mL, Order No. 022431081, Eppendorf) using low-binding pipette tips (VWR Catalog #37001-164) as quickly as possible to minimize Aβ aggregation and adherence to the devices. CSF samples were frozen (−70° C.) for later analysis of Aβ levels
Aβ40 in CSF was quantified using the MesoScale Discovery (MSD, Gaithersburg, Md.) 96-well MULTI-ARRAY Human/Rodent (4G8) Aβ40 Ultra-Sensitive Kit (K110FTE-2). The assay was done according to the manufacturer's instructions except for the standard curve and the sample preparation. A-10 μL aliquot of each CSF sample was mixed with 190 μL 1% BSA/1× Tris solution (“Blocker A” from kit) for a 1:20 CSF dilution. Synthetic Aβ1-40 peptide (from kit) was serially diluted in 1% BSA/1× Tris solution to obtain standards from 10,000-10 pg/mL for an 8-point standard curve.
MSD MULTI-SPOT Aβ40 peptide plates from the kit were incubated for 1 hour after pipetting 150 μL/well 1% BSA/1× Tris solution. The plates were washed 3 times with 400 μL 1× Tris wash buffer (from kit) using a BioTek EL406 automated plate washer (Winooski, Vt.). For CSF samples and standards, 25 μL of a 1×SULFO-TAG 4G8 detection antibody/1× “Blocker G”/1% BSA/1× Tris solution (“detection antibody solution” from kit) was pipetted into the plate. CSF samples and standards were pipetted at 25 μL/well into the plates immediately following detection antibody solution additions. The plates were incubated for 2 hours and washed 3 times with 400 μL 1× Tris wash buffer using the EL406 automated plate washer. “Read buffer T” (from kit), 1×150 μL/well, was pipetted into the plates. The MSD plates were read immediately on the MSD SECTOR Imager 6000 reader.
Standards were assayed in triplicate. CSF samples were assayed in duplicate. Curve fitting, back-calculation, % recovery, and interpolation of sample concentrations were performed using MSD DISCOVERY WORKBENCH Data Analysis Tools 3.0 Software. Signal generated by the standards was plotted and fit using the 4-parameter logistical curve fitting option with a 1/y^2 weighting function. Sample pg/mL concentrations were interpolated from the fit curve. […]

[2] = target: recombinant human neutral endopeptidase (Homo sapiens (Human), UniProt P08473); experiment: in vitro inhibition of recombinant human neutral endopeptidase (fluorescence lifetime assay); format: biochemical; details: 1 hour pre-incubation, read after 1 hour at room temperature, pH 7.4; read-out: Human NEP IC50
Text: The activity of a compound according to the present invention can be assessed by the following in vitro and in vivo methods and/or by the following in vitro and in vivo methods well-described in the art. See Doering K, Meder G, Hinnenberger M, Woelcke J, Mayr L M, Hassiepen U, (2009) “A fluorescence lifetime-based assay for protease inhibitor profiling on human kallikrein 7”, Biomol Screen, January; 14(1):1-9.
In particular, the in vitro inhibition of recombinant human neutral endopeptidase can be determined as follows:
Recombinant human neutral endopeptidase (expressed in insect cells and purified using standard methods, final concentration 7 pM) is pre-incubated with test compounds at various concentrations for 1 hour at room temperature in 10 mM sodium phosphate buffer at pH 7.4, containing 150 mM NaCl and 0.05% (w/v) CHAPS. The enzymatic reaction is started by the addition of a synthetic peptide substrate Cys(PT14)-Arg-Arg-Leu-Trp-OH to a final concentration of 0.7 μM. Substrate hydrolysis leads to an increase in fluorescence lifetime (FLT) of PT14 measured by means of a FLT reader as described by Doering et al. (2009) as referenced supra. The effect of the compound on the enzymatic activity was determined after 1 hour (t=60 min) incubation at room temperature. […]

[3] = at plasma compound concentration corresponding to plasma ANP 200 % baseline
[4] = at plasma compound concentration corresponding to plasma ANP 210 % baseline
[5] = at plasma compound concentration corresponding to plasma ANP 220 % baseline
[6] = at plasma compound concentration corresponding to plasma ANP 230 % baseline
[7] = at plasma compound concentration corresponding to plasma ANP 240 % baseline

Sequence of recombinant human neutral endopeptidase (P08473 whole entry): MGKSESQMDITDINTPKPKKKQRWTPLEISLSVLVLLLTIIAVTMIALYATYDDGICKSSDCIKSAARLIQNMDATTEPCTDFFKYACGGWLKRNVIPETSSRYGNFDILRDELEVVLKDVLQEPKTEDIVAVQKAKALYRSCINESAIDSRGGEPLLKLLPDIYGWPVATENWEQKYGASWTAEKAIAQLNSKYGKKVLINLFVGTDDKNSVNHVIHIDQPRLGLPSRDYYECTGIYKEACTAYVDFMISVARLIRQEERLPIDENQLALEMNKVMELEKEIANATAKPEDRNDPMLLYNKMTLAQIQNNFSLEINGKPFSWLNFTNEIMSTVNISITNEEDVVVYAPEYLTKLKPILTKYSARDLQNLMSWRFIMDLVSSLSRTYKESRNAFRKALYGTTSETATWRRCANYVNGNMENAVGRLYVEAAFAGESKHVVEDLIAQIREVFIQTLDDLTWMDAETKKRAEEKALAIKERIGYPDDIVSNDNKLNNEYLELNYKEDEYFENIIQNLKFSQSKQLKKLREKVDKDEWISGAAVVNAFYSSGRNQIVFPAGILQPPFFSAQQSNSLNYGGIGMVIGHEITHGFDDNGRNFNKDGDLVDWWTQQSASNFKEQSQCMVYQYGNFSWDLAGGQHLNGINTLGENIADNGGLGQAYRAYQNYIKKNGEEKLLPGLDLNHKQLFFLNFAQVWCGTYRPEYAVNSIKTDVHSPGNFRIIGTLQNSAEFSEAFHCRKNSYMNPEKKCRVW

| Structure (SMILES) | CSF Aβ (% vehicle control) [1, 3] [% vehicle control] | CSF Aβ (% vehicle control) [1, 4] [% vehicle control] | CSF Aβ (% vehicle control) [1, 5] [% vehicle control] | CSF Aβ (% vehicle control) [1, 6] [% vehicle control] | CSF Aβ (% vehicle control) [1, 7] [% vehicle control] | fold higher % increases in CSF Aβ compared with Example 1 [1] | IC50 [2] [nM] |
| --- | --- | --- | --- | --- | --- | --- | --- |
| CCOC(=O)C[C@@H](Cc1ccc(-c2cccc(Cl)c2)cc1)NC(=O)CCC(=O)O [Example 1-2 (WO2010/136493)] | 225 | 242 | 260 | 211 | 295 | 5- to 9 fold |  |
| CCOC(=O)C[C@@H](Cc1ccc(-c2cc(Cl)ccc2F)cc1)NC(=O)CCC(=O)O [Example 1-17 (WO2010/136493)] | 156 | 179 | 202 | 225 | 248 | 4 fold |  |
| CC(OC(=O)C[C@@H](Cc1ccc(-c2cc(Cl)ccc2F)cc1)NC(=O)CCP(=O)(O)O)OC(=O)OC1CCCCC1 (stereo partly drawn) [Example 1] | 114 | 120 | 126 | 132 | 139 |  |  |
| O=C(O)C[C@@H](Cc1ccc(-c2cc(Cl)ccc2F)cc1)NC(=O)CCP(=O)(O)O [Example 2, (R)-4-(5′-chloro-2′-fluoro-[1,1′-biphenyl]-4-yl)-3-(3-phosphonopropanamido)butanoic acid] |  |  |  |  |  |  | 0.11 |
